Assay results reported in US11242346B2, “Mechanistic target of rapamycin signaling pathway inhibitors and therapeutic applications thereof” (SUZHOU KINTOR PHARMACEUTICALS, INC., priority 2016, dated 2022).

Key:
[1] = target: mTOR (FRAP1) (Homo sapiens, UniProt P42345); assay: SelectScreen Profiling, Z'-LYTE kinase assay, mTOR (FRAP1); type: biochemical; conditions: 0.1 μM compound, ATP at Km, read-out: mTOR inh% @0.1 μM
Text: (§1) Some of the example compounds were submitted to Life Technologies Corporation SelectScreen® Profiling Service to test their potency in inhibiting the kinase catalytic activities of mTOR, PI3Kα, VEGF2, FGFR1, HER1 (EGFR) and HER2. A concentration of ATP at the Km of the corresponding kinase was used for all assays. The mTOR (FRAP1), VEGF2, FGFR1, HER1 (EGFR) and HER2 assays used Z′-LYTE® technology. The PI3Kα assay used Adapta® technology. The symbol “inh %” as used herein generally refers to inhibition percentage.

[2] = target: PI3Kα (Homo sapiens, UniProt P42336); assay: SelectScreen Profiling, Adapta kinase assay, PI3Kα; type: biochemical; conditions: 0.1 μM compound, ATP at Km, read-out: PI3Kα inh % @0.1 μM
Sequence of PI3Kα (P42336 whole entry): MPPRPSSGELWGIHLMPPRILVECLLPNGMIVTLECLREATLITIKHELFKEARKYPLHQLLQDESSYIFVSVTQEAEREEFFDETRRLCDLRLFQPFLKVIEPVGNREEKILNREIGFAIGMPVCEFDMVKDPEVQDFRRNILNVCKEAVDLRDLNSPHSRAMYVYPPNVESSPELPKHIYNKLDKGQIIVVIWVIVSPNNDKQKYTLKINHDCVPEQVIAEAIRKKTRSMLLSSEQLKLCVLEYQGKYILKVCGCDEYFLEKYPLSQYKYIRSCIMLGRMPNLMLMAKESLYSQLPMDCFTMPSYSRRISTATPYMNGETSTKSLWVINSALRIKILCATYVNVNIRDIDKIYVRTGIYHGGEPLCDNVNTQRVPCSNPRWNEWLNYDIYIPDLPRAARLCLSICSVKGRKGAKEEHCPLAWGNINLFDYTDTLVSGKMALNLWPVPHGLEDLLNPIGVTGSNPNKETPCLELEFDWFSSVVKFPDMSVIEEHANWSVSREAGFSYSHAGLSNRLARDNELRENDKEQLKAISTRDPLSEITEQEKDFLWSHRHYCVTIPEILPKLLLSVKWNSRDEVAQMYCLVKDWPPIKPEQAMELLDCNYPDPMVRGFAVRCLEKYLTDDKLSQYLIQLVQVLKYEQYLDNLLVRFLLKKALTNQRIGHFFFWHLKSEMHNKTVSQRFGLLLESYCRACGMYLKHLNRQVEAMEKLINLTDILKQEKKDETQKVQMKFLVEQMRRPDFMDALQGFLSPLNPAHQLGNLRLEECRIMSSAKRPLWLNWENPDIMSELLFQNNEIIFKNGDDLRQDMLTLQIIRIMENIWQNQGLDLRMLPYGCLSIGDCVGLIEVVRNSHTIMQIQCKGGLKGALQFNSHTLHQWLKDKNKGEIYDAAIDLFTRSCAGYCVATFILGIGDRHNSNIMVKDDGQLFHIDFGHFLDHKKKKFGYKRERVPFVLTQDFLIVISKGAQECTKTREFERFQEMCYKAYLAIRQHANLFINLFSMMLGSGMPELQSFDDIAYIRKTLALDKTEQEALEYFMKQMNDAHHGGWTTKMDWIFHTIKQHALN
Sequence of PI3Kα (P27986 whole entry partner): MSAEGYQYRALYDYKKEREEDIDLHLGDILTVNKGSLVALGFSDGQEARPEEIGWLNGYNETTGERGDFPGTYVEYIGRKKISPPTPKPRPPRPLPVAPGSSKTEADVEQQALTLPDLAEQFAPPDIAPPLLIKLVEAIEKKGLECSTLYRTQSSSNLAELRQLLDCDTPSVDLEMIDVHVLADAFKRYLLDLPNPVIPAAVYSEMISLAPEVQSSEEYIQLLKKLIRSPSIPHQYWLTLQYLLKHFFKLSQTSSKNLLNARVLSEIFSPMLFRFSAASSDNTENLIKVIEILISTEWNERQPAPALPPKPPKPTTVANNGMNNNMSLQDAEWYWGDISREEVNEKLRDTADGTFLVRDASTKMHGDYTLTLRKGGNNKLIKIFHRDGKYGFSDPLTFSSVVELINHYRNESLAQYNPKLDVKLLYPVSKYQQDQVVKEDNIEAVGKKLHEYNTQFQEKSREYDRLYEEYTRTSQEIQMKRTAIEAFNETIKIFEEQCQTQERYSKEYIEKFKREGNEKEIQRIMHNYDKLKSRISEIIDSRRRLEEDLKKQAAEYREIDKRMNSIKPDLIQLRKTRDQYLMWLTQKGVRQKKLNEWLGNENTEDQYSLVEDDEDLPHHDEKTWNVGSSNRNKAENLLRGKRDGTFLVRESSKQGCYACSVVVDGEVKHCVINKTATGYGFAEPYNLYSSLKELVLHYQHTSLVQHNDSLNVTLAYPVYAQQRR

[3] = target: VEGF2 (Homo sapiens, UniProt P35968); assay: SelectScreen Profiling, Z'-LYTE kinase assay, VEGF2; type: biochemical; conditions: 1 μM compound, ATP at Km, read-out: VEGF 2 inh % @1 μM
Sequence of VEGF2 (P35968 20-1356): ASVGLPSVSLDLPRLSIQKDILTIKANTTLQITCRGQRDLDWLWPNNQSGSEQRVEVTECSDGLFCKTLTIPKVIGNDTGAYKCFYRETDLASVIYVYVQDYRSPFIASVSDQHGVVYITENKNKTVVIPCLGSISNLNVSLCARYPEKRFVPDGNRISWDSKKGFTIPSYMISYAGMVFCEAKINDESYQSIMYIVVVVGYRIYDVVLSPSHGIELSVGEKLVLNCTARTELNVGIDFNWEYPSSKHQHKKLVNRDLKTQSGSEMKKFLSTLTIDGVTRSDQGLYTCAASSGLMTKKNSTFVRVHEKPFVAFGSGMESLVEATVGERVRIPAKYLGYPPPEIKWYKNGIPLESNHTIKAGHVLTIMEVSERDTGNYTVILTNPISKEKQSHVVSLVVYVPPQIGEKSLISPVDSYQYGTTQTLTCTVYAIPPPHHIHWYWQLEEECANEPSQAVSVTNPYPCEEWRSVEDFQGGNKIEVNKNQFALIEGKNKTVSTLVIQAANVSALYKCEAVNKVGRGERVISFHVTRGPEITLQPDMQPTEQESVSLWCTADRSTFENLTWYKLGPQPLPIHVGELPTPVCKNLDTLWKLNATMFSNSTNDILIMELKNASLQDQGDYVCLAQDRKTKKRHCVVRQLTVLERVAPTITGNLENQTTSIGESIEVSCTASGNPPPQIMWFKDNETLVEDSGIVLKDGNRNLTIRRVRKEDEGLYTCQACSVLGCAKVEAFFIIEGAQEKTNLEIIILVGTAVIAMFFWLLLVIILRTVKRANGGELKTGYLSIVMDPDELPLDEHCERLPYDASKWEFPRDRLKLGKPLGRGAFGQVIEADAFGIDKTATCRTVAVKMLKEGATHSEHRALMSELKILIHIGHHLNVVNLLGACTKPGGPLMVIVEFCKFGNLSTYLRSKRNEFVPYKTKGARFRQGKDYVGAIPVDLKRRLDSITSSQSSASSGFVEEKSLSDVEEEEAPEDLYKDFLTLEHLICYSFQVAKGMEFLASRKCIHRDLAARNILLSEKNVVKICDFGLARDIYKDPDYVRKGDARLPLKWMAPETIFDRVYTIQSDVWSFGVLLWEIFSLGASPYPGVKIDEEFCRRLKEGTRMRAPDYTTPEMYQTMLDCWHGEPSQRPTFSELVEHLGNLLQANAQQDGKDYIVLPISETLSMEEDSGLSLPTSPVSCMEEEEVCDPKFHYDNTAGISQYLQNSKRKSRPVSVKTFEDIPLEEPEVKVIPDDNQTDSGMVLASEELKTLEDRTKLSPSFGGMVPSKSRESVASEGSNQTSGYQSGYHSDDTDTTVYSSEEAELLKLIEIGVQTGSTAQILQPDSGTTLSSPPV
Text: as §1

[4] = target: FGFR1 (Homo sapiens, UniProt P11362); assay: SelectScreen Profiling, Z'-LYTE kinase assay, FGFR1; type: biochemical; conditions: 1 μM compound, ATP at Km, read-out: FGFR 1 inh % @1 μM
Sequence of FGFR1 (P11362 22-822): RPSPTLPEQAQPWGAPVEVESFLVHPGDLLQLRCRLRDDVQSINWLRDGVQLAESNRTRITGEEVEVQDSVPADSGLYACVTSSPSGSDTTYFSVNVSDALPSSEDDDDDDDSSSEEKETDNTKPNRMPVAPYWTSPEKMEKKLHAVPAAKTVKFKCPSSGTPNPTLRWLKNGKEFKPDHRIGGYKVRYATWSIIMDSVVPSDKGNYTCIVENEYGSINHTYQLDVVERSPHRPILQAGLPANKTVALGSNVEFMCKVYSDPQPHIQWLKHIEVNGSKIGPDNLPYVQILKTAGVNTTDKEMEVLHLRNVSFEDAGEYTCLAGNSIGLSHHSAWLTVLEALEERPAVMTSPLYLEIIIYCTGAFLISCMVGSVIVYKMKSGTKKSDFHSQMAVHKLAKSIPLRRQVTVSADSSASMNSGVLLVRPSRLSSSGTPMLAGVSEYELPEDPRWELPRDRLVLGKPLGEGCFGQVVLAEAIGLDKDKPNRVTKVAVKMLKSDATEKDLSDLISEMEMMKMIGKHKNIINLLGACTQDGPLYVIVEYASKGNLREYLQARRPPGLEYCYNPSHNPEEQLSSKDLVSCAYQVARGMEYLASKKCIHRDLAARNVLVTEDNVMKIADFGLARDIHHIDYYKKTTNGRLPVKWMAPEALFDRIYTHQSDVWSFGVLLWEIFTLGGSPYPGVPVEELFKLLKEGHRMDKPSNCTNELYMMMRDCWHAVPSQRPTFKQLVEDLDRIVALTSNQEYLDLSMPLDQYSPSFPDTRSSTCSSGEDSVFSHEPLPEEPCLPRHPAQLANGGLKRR
Text: as §1

[5] = target: HER1 (EGFR) (Homo sapiens, UniProt P00533); assay: SelectScreen Profiling, Z'-LYTE kinase assay, HER1 (EGFR); type: biochemical; conditions: 1 μM compound, ATP at Km, read-out: HER1 inh % @1 μM
Sequence of HER1 (EGFR) (P00533 25-1210): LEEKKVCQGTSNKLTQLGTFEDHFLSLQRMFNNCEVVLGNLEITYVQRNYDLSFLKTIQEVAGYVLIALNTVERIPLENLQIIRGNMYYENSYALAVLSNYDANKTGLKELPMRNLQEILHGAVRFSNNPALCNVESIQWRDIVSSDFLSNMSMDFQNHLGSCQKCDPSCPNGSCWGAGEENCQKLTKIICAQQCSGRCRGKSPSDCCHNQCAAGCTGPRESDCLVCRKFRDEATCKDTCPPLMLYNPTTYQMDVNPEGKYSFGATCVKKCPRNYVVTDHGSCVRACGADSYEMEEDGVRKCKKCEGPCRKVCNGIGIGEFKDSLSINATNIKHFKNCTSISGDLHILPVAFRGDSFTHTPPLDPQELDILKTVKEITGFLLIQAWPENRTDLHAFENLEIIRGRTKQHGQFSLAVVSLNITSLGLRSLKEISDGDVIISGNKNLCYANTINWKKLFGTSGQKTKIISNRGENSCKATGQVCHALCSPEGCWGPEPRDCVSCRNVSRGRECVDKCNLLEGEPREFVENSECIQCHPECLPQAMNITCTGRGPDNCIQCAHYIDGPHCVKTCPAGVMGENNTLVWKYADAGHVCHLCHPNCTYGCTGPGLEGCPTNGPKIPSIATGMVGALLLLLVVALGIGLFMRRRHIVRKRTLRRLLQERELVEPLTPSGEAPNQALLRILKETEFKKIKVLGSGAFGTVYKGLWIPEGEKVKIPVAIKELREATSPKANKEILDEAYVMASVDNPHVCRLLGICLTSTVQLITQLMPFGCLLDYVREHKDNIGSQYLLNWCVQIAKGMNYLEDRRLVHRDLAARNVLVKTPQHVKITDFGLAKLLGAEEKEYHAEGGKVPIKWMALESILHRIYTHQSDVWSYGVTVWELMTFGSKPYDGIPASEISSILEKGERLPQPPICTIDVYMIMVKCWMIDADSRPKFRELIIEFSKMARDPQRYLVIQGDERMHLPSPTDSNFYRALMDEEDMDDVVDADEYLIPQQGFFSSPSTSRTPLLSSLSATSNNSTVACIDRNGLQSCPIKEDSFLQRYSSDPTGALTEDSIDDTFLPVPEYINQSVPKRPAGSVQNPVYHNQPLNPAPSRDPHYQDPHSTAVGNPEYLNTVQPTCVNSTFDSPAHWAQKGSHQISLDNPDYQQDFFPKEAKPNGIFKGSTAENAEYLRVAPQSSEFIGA
Text: as §1

[6] = target: HER2 (Homo sapiens, UniProt P04626); assay: SelectScreen Profiling, Z'-LYTE kinase assay, HER2; type: biochemical; conditions: 1 μM compound, ATP at Km, read-out: HER2 inh % @1 μM
Text: as §1

[7] = system: mammalian tumor cell lines such as PC-3, LNCAP, U87, Huh-7, HepG2 and MDA-MB-468; assay: Cell proliferation/survival MTT assay in tumor cell lines; type: cell-based; conditions: 5 days (120 h) culture; cell line not specified; read-out: IC50, inhibition of tumor cell growth (MTT)
Description: The cytotoxic or cytostatic activity of Formula I-III exemplary compounds was measured by establishing proliferating mammalian tumor cell lines such as PC-3, LNCAP, U87, Huh-7, HepG2 and MDA-MB-468 in a cell culture medium, adding a test compound, culturing the cells for a period of 5 days by measuring cell viability via MTT assays. Dose response data were obtained for each test compound and the degree of inhibition of tumor cell growth was expressed as an IC50 value. […] For example. For example, compounds of example 14, 15, 46,29, 45, 49, 122, 88, 54, 55, 58, 59, 63, 64, 66, 67, 68, 113, 86, 90.
PC-3 (or U87) cells were seeded in 96-well plates at low density (at 2,000 cells per well) in media supplemented with 10% FBS (growth media) and transferred to serum-free media (1% FBS) after 24 h. Designated concentrations of drug were added to each well. The cells were incubated for 120 h. At the end of drug exposure, 20 μL/well of MTT solution was added. After 4 h at 37° C. in a humidified 5% CO2 atmosphere, the absorbance at 490 nm was recorded by using a microplate reader. IC50 was calculated using GraphPad Prism version 5 for Windows. The curves were fit using a nonlinear regression model with a log (inhibitor) versus response formula.

[8] = Metabolic stability in human liver microsome (HLM); type: in vitro ADME; conditions: incubation with human liver microsome for 60 min
Description: Active mTOR inhibitors in enzymatic and/or cell-based assays herein were evaluated for pharmacokinetic properties. Preferable compounds are with pharmacokinetic properties of low clearance, long half-life and/or good oral bioavailability (Fpo). In vitro, selected example compounds were evaluated for metabolic stability by incubating with human liver microsome (HLM) for 60 min. Compounds that were metabolized slower (i.e. higher % remaining) are preferred. […] The more metabolic stable example compounds in the HLM assay were further evaluated for pharmacokinetic properties in vivo. In a representative experiment, selected example compounds were dosed to rats intravenously (IV, 5 mg/kg, 30% PEG400+30% PG+1% DMSO in saline) and orally (PO, 10 mg/kg, 2.4% DMSO+0.1% Tween80 in 0.5% CMC-Na), rat blood samples were taken at designed time points after dosing and analyzed for tested drug concentrations using LC-MS/MS. Pharmacokinetic parameters were derived from the time curve of drug concentrations.

Compound | inhibition at 0.1 µM [1] [%] | inhibition at 0.1 µM [2] [%] | inhibition at 1 µM [3] [%] | inhibition at 1 µM [4] [%] | inhibition at 1 µM [5] [%] | inhibition at 1 µM [6] [%] | metabolic stability in HLM [8] | IC50 [7] [nM]
CCNC(=O)Nc1ccc(-c2nc(N3CCOC[C@H]3C)c3cccn3n2)cc1 [Example 4] | 72 | 10 | – | – | – | – | – | –
C[C@@H]1COCCN1c1nc(-c2ccc(NC(=O)Nc3cccnc3)cc2)nn2cccc12 [Example 17] | – | 25 | – | – | – | – | – | –
O=C(Nc1ccncc1)Nc1ccc(-c2nc(N3CCOCC3)c3cccn3n2)cc1 [Example 18] | – | -13 | – | – | – | – | – | –
O=C(Nc1ccc(-c2nc(N3CCOCC3)c3cccn3n2)cc1)NC1CC1 [Example 38] | 69 | -8 | – | – | – | – | – | –
CN(C)CCNC(=O)c1ccc(NC(=O)Nc2ccc(-c3nc(N4CCOCC4)c4cccn4n3)cc2)cc1 [Example 45] | 98 | 0 | 10 | 4 | -2 | -9 | – | < 500
CN(C)CCCNC(=O)c1ccc(NC(=O)Nc2ccc(-c3nc(N4CCOCC4)c4cccn4n3)cc2)cc1 [Example 47] | 89 | – | 10 | 6 | 1 | -5 | – | –
O=C(Nc1ccc(C(=O)NCCN2CCOCC2)cc1)Nc1ccc(-c2nc(N3CCOCC3)c3cccn3n2)cc1 [Example 48] | 69 | -15 | – | – | – | – | – | –
CN1CCN(CCNC(=O)c2ccc(NC(=O)Nc3ccc(-c4nc(N5CCOCC5)c5cccn5n4)cc3)cc2)CC1 [Example 49] | 88 | – | – | – | – | – | – | < 500
C[C@@H](CO)NC(=O)Nc1ccc(-c2nc(N3CCOCC3)c3cccn3n2)cc1 [Example 52] | 74 | 6 | – | – | – | – | – | –
O=C(Nc1ccc(C(=O)N2CC(O)C2)cc1)Nc1ccc(-c2nc(N3CCOCC3)c3cccn3n2)cc1 [Example 54] | 95 | – | 7 | -4 | -1 | 4 | – | < 500
O=C(Nc1ccc(C(=O)N2CCC(O)CC2)cc1)Nc1ccc(-c2nc(N3CCOCC3)c3cccn3n2)cc1 [Example 55] | 90 | – | 11 | -1 | 0 | 5 | metabolically stable | < 500

Now from value to compound, other results behind:

inhibition at 0.1 µM [1] [%] | inhibition at 0.1 µM [2] [%] | inhibition at 1 µM [3] [%] | inhibition at 1 µM [4] [%] | inhibition at 1 µM [5] [%] | inhibition at 1 µM [6] [%] | metabolic stability in HLM [8] | Compound | IC50 [7] [nM]
88 | – | – | – | – | – | metabolically stable | O=C(Nc1ccc(C(=O)N2CCNCC2)cc1)Nc1ccc(-c2nc(N3CCOCC3)c3cccn3n2)cc1 [Example 56] | –
97 | – | 10 | 4 | 1 | -5 | – | CN(C)[C@@H]1CCN(C(=O)c2ccc(NC(=O)Nc3ccc(-c4nc(N5CCOCC5)c5cccn5n4)cc3)cc2)C1 [Example 58] | < 500
93 | – | 10 | 7 | 2 | -2 | – | CN1CCCN(C(=O)c2ccc(NC(=O)Nc3ccc(-c4nc(N5CCOCC5)c5cccn5n4)cc3)cc2)CC1 [Example 59] | < 500
71 | – | – | – | – | – | – | CNC(=O)c1ccc(NC(=O)Nc2ccc(-c3nc(N4CCOCC4)c4cccn4n3)cc2)cc1F [Example 61] | –
53 | 10 | – | – | – | – | – | O=C(Nc1ccc(-c2nc(N3CCOCC3)c3ccc(C(F)(F)F)n3n2)cc1)Nc1cccnc1 [Example 62] | –
